Laboratory results taken from patent US20110059114A1, “Compositions and Methods for the Treatment of Radioresistant Glioma Stem Cells” (DUKE UNIVERSITY, priority 2009, published 2011).

Columns and labels:
Type in all cases: cell-based, human
[1] = tested on: T4302 CD133+ glioma stem cells; test: Growth curve, CellTiter-Glo Luminescent Cell Viability Assay; conditions: without radiation treatment, day five; 2 μM DAPT or 0.5 μM L685,458
Excerpt: (§1) FIG. 1 is a series of graphs illustrating that γ-secretase inhibitors reduce cell growth and clonogenic survival of glioma stem cells following radiation. (A) T4302 CD133+ glioma stem cells were transfected with a Notch-responsive luciferase reporter (RBP-JK reporter) pre-mixed with the vector directing constitutive expression of Renilla luciferase. Cells were left unirradiated or irradiated at 3 Gy, and were then collected to measure luciferase activities at time points as indicated. […] The relative mRNA levels of Hes2 were determined by quantitative real-time PCR at the time points as indicated. […] Total viable cell numbers were then determined by the CellTiter-Glo Luminescent Cell Viability Assay (Promega) for the following five days. […] Cells were then plated to form neurospheres, and the surviving fractions were determined as described in methods. […] (F,G) Neurosphere formation of T3359 and T4105 CD 133+ cells treated with GSIs alone, 3-Gy radiation alone, or the combination was determined as described in FIG. 1E. *: p<0.05 by Student's t-test; #: p<0.001 by one-way ANOVA.
Growth Curve, caspase 3/7 assay, and clonogenic survival assay. […] Cell number was measured for 5 days using the CellTiter-Glo assay kit (Promega, Madison, […].). […]

Notch signaling = test: Notch-responsive luciferase reporter (RBP-Jκ reporter) assay; conditions: T4302 CD133+ cells; 2 μM DAPT or 0.5 μM L685,458 over night
Excerpt: as §1
Luciferase assay. […] The luciferase activities were determined by the Dual-luciferase assay system (Promega).

Mcl-1 = test: Immunoblotting of Mcl-1; conditions: 2 μM DAPT, T4302 CD133+ cells
Method: FIG. 5 is a set of immunoblots and a graph illustrating that the Notch pathway regulates radioresistance of glioma stem cells via the Akt pathway and Mcl-1. T4302 CD 133+ cells were infected with control lentivirus or lentivirus directing expression of NICD2. Cells were pre-treated with or without 2 μM DPAT for 4 hours and exposed to 3-Gy radiation. Irradiated cells were collected at 24 or 48 hours after radiation, and sham-irradiated cells were collected at 48 hours after radiation. (A, C, D) Protein levels of phospho-Akt (S473), total Akt, PTEN, Bcl-2, Bcl-xL, Mcl-1, phospho-p53 (S15), total p53 and PUMA were assessed by immunoblotting. Actin was blotted as the loading control. (B) Control cells or NICD2-expressing cells were pre-treated with 10 μM PI3K inhibitor, LY294002, or 50 μM Akt inhibitor III (SH-6), for 4 hours prior to radiation exposure. Relative caspase 3/7 activities were determined at 48 hours after radiation exposure. #: p<0.001, by one-way ANOVA.
Antibodies, DNA constructs, lentiviruses and other reagents. The antibodies purchased from Cell Signaling Technology (Danvers, M A) include phosphor-S296-Chk1 (2349), total Chk1 (2345), phosphor-T68-Chk2 (2661), total Chk2 (2662), phospho-5473 Akt (#9271), total Akt (#9272), PTEN (#9556), phospho-S15-p53 (#9286), Bcl-2 (#2870), Bcl-xL (#2764), Mcl-1 (#4572), Puma (#4976). […]

CC(NC(=O)Cc1cc(F)cc(F)c1)C(=O)NC(C(=O)OC(C)(C)C)c1ccccc1 [DAPT, N-[N-(3,5-Difluorophenacetyl-L-alanyl)]-S-phenylglycine t-Butyl Ester]
sham-treated cells more than GSI-treated cells (total cell number) [1]: 25%
Notch signaling in glioma stem cells (Notch-responsive luciferase reporter) (Notch signaling): blocked
levels of Mcl-1 (Mcl-1): decreased
levels of Mcl-1 proteins of a smaller size (Mcl-1): increased
